Organism: Rattus norvegicus
Experiment: Open TG-GATES - Regimen: Single
Type: toxicity, organism-based, Sprague-Dawley
Design: regimen Single, gender Male, age 6 weeks
Conditions: in vivo, po, 300 mg/kg, route gavage, dose level Middle; for APTT / Bas / Eos / Fbg / Hb / Ht / Lym / MCH / MCHC / MCV / Mono / Neu / PT / Plat / RBC / Ret / WBC: tissue Blood; for KIDNEY_L / KIDNEY_R / KIDNEY_TOTAL: tissue Kidney; for LIVER: tissue Liver; for A/G / ALP / ALT / AST / BUN / CRE / Ca / Cl / DBIL / GLC / IP / K / LDH / Na / PL / RALB / TBIL / TC / TG / TP / gamma-GTP: tissue Plasma

`CC(C)(S)[C@@H](N)C(=O)O` [PENICILLAMINE] gave a TERMINAL_BW (9 h) of 198.7 g, an APTT (9 h) of 16.2 s and a Bas (9 h) of 0%. The Eos (9 h) was 0.8%, the Fbg (9 h) was 304.8 mg/dL and the Hb (9 h) was 13.2 g/dL. For the same molecule, the Ht (9 h) was 40.9%, the Lym (9 h) was 76.8% and the MCH (9 h) was 20.8 pg. The MCHC (9 h) was 32.2%, the MCV (9 h) was 64.4 fL and the Mono (9 h) was 3%. It also gave a Neu (9 h) of 18.6%, a PT (9 h) of 15.2 s and a Plat (9 h) of 120.8 x10_4/uL. For the same molecule, the RBC (9 h) was 634.2 x10_4/ul, the Ret (9 h) was 8.9% and the WBC (9 h) was 73.6 x10_2/uL. It also gave a KIDNEY_L (9 h) of 0.9 g, a KIDNEY_R (9 h) of 0.9 g and a KIDNEY_TOTAL (9 h) of 1.7 g. It also gave an LIVER (9 h) of 7.7 g, an A/G (9 h) of 0.9 and an ALP (9 h) of 1040.2 IU/L. The ALT (9 h) was 32.8 IU/L, the AST (9 h) was 67 IU/L and the BUN (9 h) was 8 mg/dL. It also gave a CRE (9 h) of 0.2 mg/dL, a Ca (9 h) of 10.6 mg/dL and a Cl (9 h) of 107.2 meq/L. For the same molecule, the DBIL (9 h) was 0.01 mg/dL, the GLC (9 h) was 175.4 mg/dL and the IP (9 h) was 9.9 mg/dL. For the same molecule, the K (9 h) was 4 meq/L, the LDH (9 h) was 58 IU/L and the Na (9 h) was 142.8 meq/L. The PL (9 h) was 128.8 mg/dL, the RALB (9 h) was 2.5 g/dL and the TBIL (9 h) was 0.042 mg/dL. It also gave a TC (9 h) of 73.6 mg/dL, a TG (9 h) of 39.4 mg/dL and a TP (9 h) of 5.2 g/dL. For the same molecule, the gamma-GTP (9 h) was 1 IU/L, the TERMINAL_BW (24 h) was 216.3 g and the APTT (24 h) was 15.1 s. It also gave a Bas (24 h) of 0.2%, an Eos (24 h) of 1% and a Fbg (24 h) of 290.8 mg/dL. It also gave a Hb (24 h) of 13.5 g/dL, a Ht (24 h) of 41.5% and a Lym (24 h) of 82.2%. It also gave an MCH (24 h) of 21.1 pg, an MCHC (24 h) of 32.5% and an MCV (24 h) of 64.7 fL. It also gave a Mono (24 h) of 3%, a Neu (24 h) of 12.6% and a PT (24 h) of 14 s. For the same molecule, the Plat (24 h) was 123.4 x10_4/uL, the RBC (24 h) was 640.6 x10_4/ul and the Ret (24 h) was 8.3%. It also gave a WBC (24 h) of 101.5 x10_2/uL, a KIDNEY_L (24 h) of 0.9 g and a KIDNEY_R (24 h) of 0.9 g. It also gave a KIDNEY_TOTAL (24 h) of 1.8 g, an LIVER (24 h) of 10.1 g and an A/G (24 h) of 0.9. For the same molecule, the ALP (24 h) was 1515 IU/L, the ALT (24 h) was 39.2 IU/L and the AST (24 h) was 65.8 IU/L. The BUN (24 h) was 13.4 mg/dL, the CRE (24 h) was 0.2 mg/dL and the Ca (24 h) was 11.1 mg/dL. The Cl (24 h) was 105.6 meq/L, the DBIL (24 h) was 0.012 mg/dL and the GLC (24 h) was 172.4 mg/dL. The IP (24 h) was 8.2 mg/dL, the K (24 h) was 4.1 meq/L and the LDH (24 h) was 79.4 IU/L. It also gave a Na (24 h) of 144.2 meq/L, a PL (24 h) of 164.8 mg/dL and an RALB (24 h) of 2.6 g/dL. For the same molecule, the TBIL (24 h) was 0.028 mg/dL, the TC (24 h) was 86.6 mg/dL and the TG (24 h) was 126 mg/dL. It also gave a TP (24 h) of 5.5 g/dL and a gamma-GTP (24 h) of 1.2 IU/L.

Reference: ChEMBL document CHEMBL3885861, “Open TG-GATES”
